Experimental data as given in patent US7241745B2, “Pyridyl alkene and pyridyl alkine acid amides as cytostatics and immunosupressives” (Astellas Pharma GmbH, priority 1996, dated 2007).

Tests used:
[1] = test system: HepG2 cells; assay: Growth inhibition of HepG2 cells, sulforhodamin-B protein determination after six days of incubation; assay type: cell-based; details: Homo sapiens, 144 h, six days of substance incubation, sulforhodamin-B-method, read-out: IC50-value (concentration in which the cell growth was inhibited by 50%)
Procedure: The tumor growth inhibiting activity of the substances was determined on human tumor cells in standardized in vitro test systems. In the screening tests, the substances gave IC50-values in a concentration range of 0.1 nM to 10 μM.
HepG2 cells plated at a 20,000 cell/ml in 12-well plastic dishes. Cultivation occured in Richters IMEM-ZO nutrient medium with 5% fetal calf serum (FCS) in a tissue culture incubator with a gas mixture of 5% CO2 and 95% air at a temperature of 37° C. One day after plating, the culture medium was aspirated from the cells and replaced by fresh medium which contained the respective concentrations of the test substances. For the individual concentrations and the controls without test substances, three-fold batches were done for each. Three days after the beginning of treatment, the medium was again renewed with the test compounds. After six days of substance incubation, the test was ended and the protein amount in the individual wells was determined with the sulforhodamin-B-method (according to P. Skehan et al.: New Colorimetric Cytotoxicity Assay for Anticancer-Drug Screening. J. Natl. Cancer Inst. 82: 1107–1112, 1990). The IC50-values (defined as that concentration in which the cell growth was inhibited by 50%) was taken from the dose-response curves and given as a comparative measurement for the activity of the test compounds.

[2] = test system: freshly isolated lymphocytes from the spleen of a Swiss mouse; assay: Immunosuppressing activity: vitality of freshly isolated spleen lymphocytes by flow-through cytometry after 2 days; assay type: cell-based; details: Lymphocyte, 48 h, 2 days incubation, flow-through cytometer, read-out: IC50 (percentage amount of vital cells)
Description: Many anti-tumor agents have not only a cytotoxic effect on tumor cells, but also on the blood cell system. This leads to a weakening of the immune defense, which can, in turn, be specifically employed to suppress the rejection reaction after an organ transplantation for example. Therefore, a use of the main compounds, optionally in combination with other compounds effective for these indications is suitable in diseases such as psoriasis or autoimmune diseases. In order to test the possibility for a therapeutic use in illnesses of this type, the substance activity was tested on freshly isolated lymphocytes as follows:
The spleen of a Swiss mouse served as a lymphocyte source. The lymphocyte population was isolated from the spleen cell suspension over a ficoll gradient and taken up in IMEM-ZO culture medium with 0,1% dextran 70,000 and 2% fetal calf serum. […] Subsequently, 10,000 cells per each sample were measured on a flow-through cytometer and the percentage amount of vital cells in the population was determined. By means of the dose-response curves, IC50-values were calculated which were also employed in the following Tables for the characterization of the individual substances: […]

| SMILES | melting point [°C] | IC50 [1] [nM] | IC50 [2] [nM] |
| --- | --- | --- | --- |
| O=C(C=CC=Cc1cccnc1)NCCCCC1CCN(C(c2ccccc2)c2ccccc2)CC1 [compound 70, N-[4-(1-diphenylmethyl-piperidin-4-yl)-butyl]-5-(pyridin-3-yl)-2,4-pentadienoic acid amide] | 164 to 166 | – | – |
| O=C(C=Cc1cccnc1)NCCCCC1CCN(C2c3ccccc3CSc3ccccc32)CC1 (stereo not shown) [compound 136, N-{4-[1-(6,11-dihydro-dibenzo [b,e]thiepin-11-yl)-piperidin-4-yl]-butyl}-3-(pyridin-3-yl)-acrylamide] | 89 to 91 | – | – |
| O=C(C=Cc1cccnc1)NCCCCC1CCN(C(=O)C(c2ccccc2)c2ccccc2)CC1 [compound 150, N-[4-(1-diphenylacetyl-piperidin-4-yl)-butyl]-3-(pyridin-3-yl)-acrylamide] | 161 | – | – |
| O=C(C=Cc1cccnc1)NCCCCC1CCN(C(=O)c2ccccc2)CC1 [compound 159, N-[4-(1-benzoylpiperidin-4-yl)-butyl]-3-(pyridin-3-yl)-acrylamide] | – | 0.5 | 3 |
| O=C(C=Cc1cccnc1)NCCCCC1CCN(C(=O)Nc2cccc3ccccc23)CC1 [compound 195, N-{4-[1-(1-naphthylaminocarbonyl)-piperidin-4-yl]-butyl}-3-(pyridin-3-yl)-acrylamide] | 198 to 200 | – | – |
| O=C(C=Cc1cccnc1)NCCCCC1CCN(S(=O)(=O)c2ccc3ccccc3c2)CC1 [compound 219, N-{4-[1-(2-naphthyl-sulfonyl)-piperidin-4-yl]-butyl}-3-(pyridin-3-yl)-acrylamide] | 85 to 87 | – | – |
